Measured values published in patent US11691992B2 (Anacor Pharmaceuticals, Inc., priority 2017, dated 2023).

What was measured:
Format in all cases: cell-based
[1] = tested on: STIB719/ILRAD560 T. vivax (drug sensitive) strain; assay: Ex vivo Alamar Blue 48 h drug sensitivity assay for T. vivax; settings: Trypanosoma vivax, ex vivo bloodstream forms from mouse, 45 hrs + 3 hrs resazurin, read-out: IC50: I Hypoxanthine Incorporation T. vivax STIB 719/ILRA D 560, 2 d
Experimental: Example 109. Ex Vivo Alamar Blue 48 h Drug Sensitivity Assay for T. vivax
[…] Test compounds were prepared as 10 mg/mL DMSO stocks for each assay run. Compounds were assayed in at least three separate, independent test runs and an 11-point dilution curve was used to determine the IC50 values. Bloodstream form trypanosomes were propagated and harvested from a highly parasitemic mouse (via cardiac puncture) and were incubated with test compounds for 45 hrs at 37° C. in a humidified atmosphere containing 5% CO2, supported in HMI media containing 20% bovine serum. […] Plates were then read using a fluorescent plate reader (Spectramax, Gemini XS, Bucher Biotec, Basel, Switzerland) using an excitation wavelength of 536 nm and an emission wavelength of 588 nm. Data points were averaged to generate sigmoidal dose-response curves and IC50 values were determined using Softmax Pro 5.2 software.

[2] = tested on: IL3000 T. congolense (drug sensitive) strain; assay: In vitro Alamar Blue 72 h drug sensitivity assay for T. congolense; settings: Trypanosoma congolense; bloodstream form, 69 h + 3 h resazurin, 34° C.; classes A-C; read-out: IC50: I Org. Growth T. congolense IL-3000, 3 d
How it was run: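 Bloodstream-form trypanosomes in HMI medium with 20% bovine serum, exposed to compound for 69 h at 34 °C, 5% CO2, then resazurin for 3 h more. Fluorescence read at 536/588 nm. IC50 from 11-point sigmoidal dose-response curves, at least three independent runs.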

[3] = tested on: bloodstream forms of T. b. rhodesiense STIB 900; assay: T. brucei rhodesiense STIB 900 growth inhibition assay; settings: Trypanosoma brucei; bloodstream forms, 72 h, Alamar Blue; protocol of Example 110; read-out: IC50: I Org. Growth T. brucei rhodesiense STIB 900, 3 d
How it was run: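 Bloodstream-form STIB 900 (10^4/well) were cultured in supplemented MEM with 15% horse serum and compound (90 to 0.123 μg/ml, 3-fold steps) for 72 h at 37 °C, 5% CO2. Viability was read by Alamar Blue fluorescence (ex 536/em 588 nm) after a further 2-4 h.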

[4] = tested on: L. infantum MHOM/MA(BE)/67 amastigotes in primary peritoneal mouse macrophages; assay: Leishmania infantum intracellular amastigote assay in mouse macrophages; settings: Macrophage, 120 h, amastigotes in primary peritoneal mouse macrophages, 5 d, Giemsa staining, read-out: Inhibition of Organism Growth in Leishmania infantum MHOM/MA/BE/67, 5 d
How it was run: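 Amastigotes harvested from infected hamster spleen infected primary peritoneal mouse macrophages (5×10^5 amastigotes/well, 2 h, 37 °C). Compounds then present 5 d at 37 °C, 5% CO2. Parasite burden counted by microscopy after Giemsa staining, as % of untreated controls; IC50 from sigmoidal variable-slope fit.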

[5] = tested on: Trypanosoma brucei rhodesiense STIB 900 strain; assay: Trypanosoma brucei rhodesiense STIB 900 screening assay; settings: STIB 900 bloodstream forms, 72 h, Alamar Blue, protocol of Example 114, read-out: Swiss TPH T b rhodesiense IC50
Experimental: Example 114. Trypanosoma brucei rhodesiense STIB 900 Screening Assay Procedure
The Trypanosoma brucei rhodesiense STIB 900 strain was isolated in 1982 from a human patient in Tanzania and after several mouse passages cloned and adapted to axenic culture conditions (Baltz, et al., EMBO Journal 4: 1273-1277 (1985); Thuita, et al., Acta Tropica 108: 6-10 (2008)). Minimum Essential Medium (50 μL) supplemented with 25 mM HEPES, 1 g/L additional glucose, 1% MEM non-essential amino acids (100×), 0.2 mM 2-mercaptoethanol, 1 mM Na-pyruvate and 15% heat inactivated horse serum was added to each well of a 96-well microtiter plate. Serial drug dilutions of seven 3-fold steps covering a range from 90 to 0.123 μg/mL were prepared. Then 10^4 bloodstream forms of T. b. rhodesiense STIB 900 in 50 μL was added to each well and the plate incubated at 37° C. under a 5% CO2 atmosphere for 72 h. 10 μL Alamar Blue (resazurin, 12.5 mg in 100 mL double-distilled water) was then added to each well and incubation continued for a further 2-4 h (Raz, et al., Acta Tropica 68: 139-47 (1997)). Then the plates were read with a Spectramax Gemini XS microplate fluorometer (Molecular Devices Corporation, Sunnyvale, Calif., USA) using an excitation wavelength of 536 nm and an emission wavelength of 588 nm. Data were transferred into the graphic program Softmax Pro (Molecular Devices), which calculated IC50 values.

Structure (SMILES): COCc1c(C(=O)Nc2ccc3c(c2)B(O)OC3)nnn1-c1ccccn1 [Example 53, N-(1-hydroxy-1,3-dihydrobenzo[c][1,2]oxaborol-6-yl)-5-(methoxymethyl)-1-(pyridin-2-yl)-1H-1,2,3-triazole-4-carboxamide]
- IC50 [1]: < 200 nM
- IC50 [2]: < 100 nM

Structure (SMILES): Cc1c(C(=O)Nc2ccc3c(c2)B(O)OC3)nnn1-c1ncccc1Cl [Example 82, 1-(3-Chloropyridin-2-yl)-N-(1-hydroxy-1,3-dihydrobenzo[c][1,2]oxaborol-6-yl)-5-methyl-1H-1,2,3-triazole-4-carboxamide]
- IC50 [1]: < 200 nM
- IC50 [3]: 100 to 300 nM
- IC50 [2]: < 100 nM
- IC50 [4]: 3000 to 19900 nM
- IC50 [5]: 100 to 250 nM

Structure (SMILES): O=C(Nc1ccc2c(c1)B(O)OC2)c1nnn(-c2ccccn2)c1C1CC1 [Example 54, 5-cyclopropyl-N-(1-hydroxy-1,3-dihydrobenzo[c][1,2]oxaborol-6-yl)-1-(pyridin-2-yl)-1H-1,2,3-triazole-4-carboxamide]
- IC50 [1]: 201 to 500 nM
- IC50 [2]: < 100 nM

Structure (SMILES): Cc1c(C(=O)Nc2ccc3c(c2)B(O)OC3)nnn1-c1cccc(C(F)(F)F)n1 [Example 48, N-(1-hydroxy-1,3-dihydrobenzo[c][1,2]oxaborol-6-yl)-5-methyl-1-(6-(trifluoromethyl)pyridin-2-yl)-1H-1,2,3-triazole-4-carboxamide]
- IC50 [1]: 201 to 500 nM
- IC50 [2]: 100 to 300 nM

Structure (SMILES): COc1ccccc1-n1nnc(C(=O)Nc2ccc3c(c2)B(O)OC3)c1C [Example 88, N-(1-hydroxy-1,3-dihydrobenzo[c][1,2]oxaborol-6-yl)-1-(2-methoxyphenyl)-5-methyl-1H-1,2,3-triazole-4-carboxamide]
- IC50 [1]: 201 to 500 nM
- IC50 [3]: 100 to 300 nM
- IC50 [2]: < 100 nM
- IC50 [4]: < 3000 nM
- IC50 [5]: 100 to 250 nM

Structure (SMILES): O=C(Nc1ccc2c(c1)B(O)OC2)c1nnn(-c2ccccn2)c1CC(F)(F)F [Example 56, N-(1-hydroxy-1,3-dihydrobenzo[c][1,2]oxaborol-6-yl)-1-(pyridin-2-yl)-5-(2,2,2-trifluoroethyl)-1H-1,2,3-triazole-4-carboxamide]
- IC50 [1]: 201 to 500 nM
- IC50 [2]: 100 to 300 nM

Structure (SMILES): Cc1nn(-c2ccccc2)nc1C(=O)Nc1ccc2c(c1)B(O)OC2 [Example 72, N-(1-hydroxy-1,3-dihydrobenzo[c][1,2]oxaborol-6-yl)-5-methyl-2-phenyl-2H-1,2,3-triazole-4-carboxamide]
- IC50 [1]: 201 to 500 nM
- IC50 [3]: 100 to 300 nM
- IC50 [2]: < 100 nM
- IC50 [4]: 3000 to 19900 nM
- IC50 [5]: < 100 nM

Structure (SMILES): Cc1c(C(=O)Nc2ccc3c(c2)B(O)OC3)nnn1-c1ccc(Cl)cn1 [Example 83, 1-(5-Chloropyridin-2-yl)-N-(1-hydroxy-1,3-dihydrobenzo[c][1,2]oxaborol-6-yl)-5-methyl-1H-1,2,3-triazole-4-carboxamide]
- IC50 [1]: 510 to 10000 nM
- IC50 [3]: < 100 nM
- IC50 [2]: < 100 nM
- IC50 [4]: < 3000 nM
- IC50 [5]: < 100 nM

Structure (SMILES): O=C(Nc1ccc2c(c1)B(O)OC2)c1nnn(-c2ccccn2)c1CO [Example 55, N-(1-hydroxy-1,3-dihydrobenzo[c][1,2]oxaborol-6-yl)-5-(hydroxymethyl)-1-(pyridin-2-yl)-1H-1,2,3-triazole-4-carboxamide]
- IC50 [1]: < 200 nM
- IC50 [2]: < 100 nM

Structure (SMILES): O=C(Nc1ccc2c(c1)B(O)OC2)c1cn(-c2ccc(Cl)cn2)nn1 [Example 59, 1-(5-Chloropyridin-2-yl)-N-(1-hydroxy-1,3-dihydrobenzo[c][1,2]oxaborol-6-yl)-1H-1,2,3-triazole-4-carboxamide]
- IC50 [1]: 201 to 500 nM
- IC50 [3]: 100 to 300 nM
- IC50 [2]: < 100 nM
- IC50 [4]: 3000 to 19900 nM
- IC50 [5]: < 100 nM

Structure (SMILES): Cc1c(C(=O)Nc2ccc3c(c2)B(O)OC3(C)C)nnn1-c1ccccn1 [Example 85, N-(1-hydroxy-3,3-dimethyl-1,3-dihydrobenzo[c][1,2]oxaborol-6-yl)-5-methyl-1-(pyridin-2-yl)-1H-1,2,3-triazole-4-carboxamide]
- IC50 [1]: 510 to 10000 nM
- IC50 [3]: 310 to 10000 nM
- IC50 [2]: 310 to 100000 nM
- IC50 [4]: 20000 to 100000 nM
- IC50 [5]: 260 to 2000 nM

Structure (SMILES): Cc1c(C(=O)Nc2ccc3c(c2)B(O)OC3(C)C)nnn1-c1ccccc1 [Example 92, N-(1-hydroxy-3,3-dimethyl-1,3-dihydrobenzo[c][1,2]oxaborol-6-yl)-5-methyl-1-phenyl-1H-1,2,3-triazole-4-carboxamide]
- IC50 [1]: 510 to 10000 nM
- IC50 [3]: 310 to 10000 nM
- IC50 [2]: 310 to 100000 nM
- IC50 [4]: 20000 to 100000 nM
- IC50 [5]: 260 to 2000 nM

Structure (SMILES): CC1(C)OB(O)c2cc(NC(=O)c3cn(-c4ccccn4)nn3)ccc21 [Example 62, N-(1-hydroxy-3,3-dimethyl-1,3-dihydrobenzo[c][1,2]oxaborol-6-yl)-1-(pyridin-2-yl)-1H-1,2,3-triazole-4-carboxamide]
- IC50 [1]: 510 to 10000 nM
- IC50 [3]: 310 to 10000 nM
- IC50 [2]: 310 to 100000 nM
- IC50 [4]: 20000 to 100000 nM
- IC50 [5]: 260 to 2000 nM

Structure (SMILES): Cc1c(C(=O)Nc2ccc3c(c2)B(O)OC3)nnn1-c1cccc(C(F)(F)F)c1 [Example 87, N-(1-hydroxy-1,3-dihydrobenzo[c][1,2]oxaborol-6-yl)-5-methyl-1-(3-(trifluoromethyl)phenyl)-1H-1,2,3-triazole-4-carboxamide]
- IC50 [1]: 510 to 10000 nM
- IC50 [3]: 100 to 300 nM
- IC50 [2]: 100 to 300 nM
- IC50 [4]: 3000 to 19900 nM
- IC50 [5]: 100 to 250 nM

Structure (SMILES): O=C(Nc1ccc2c(c1)B(O)OC2)c1cn(-c2ncccc2Cl)nn1 [Example 58, 1-(3-Chloropyridin-2-yl)-N-(1-hydroxy-1,3-dihydrobenzo[c][1,2]oxaborol-6-yl)-1H-1,2,3-triazole-4-carboxamide]
- IC50 [1]: < 200 nM
- IC50 [3]: < 100 nM
- IC50 [2]: < 100 nM
- IC50 [4]: 3000 to 19900 nM
- IC50 [5]: < 100 nM
